What was measured:
[1] = biological target: T1, S7.1R (Dj-S7.1R) (Dugesia japonica, UniProt O15969); assay: GloSensor cAMP luminescence in transfected HEK293 cells, peak amplitude; type: cell-based
T1 sequence (O15969 1-478): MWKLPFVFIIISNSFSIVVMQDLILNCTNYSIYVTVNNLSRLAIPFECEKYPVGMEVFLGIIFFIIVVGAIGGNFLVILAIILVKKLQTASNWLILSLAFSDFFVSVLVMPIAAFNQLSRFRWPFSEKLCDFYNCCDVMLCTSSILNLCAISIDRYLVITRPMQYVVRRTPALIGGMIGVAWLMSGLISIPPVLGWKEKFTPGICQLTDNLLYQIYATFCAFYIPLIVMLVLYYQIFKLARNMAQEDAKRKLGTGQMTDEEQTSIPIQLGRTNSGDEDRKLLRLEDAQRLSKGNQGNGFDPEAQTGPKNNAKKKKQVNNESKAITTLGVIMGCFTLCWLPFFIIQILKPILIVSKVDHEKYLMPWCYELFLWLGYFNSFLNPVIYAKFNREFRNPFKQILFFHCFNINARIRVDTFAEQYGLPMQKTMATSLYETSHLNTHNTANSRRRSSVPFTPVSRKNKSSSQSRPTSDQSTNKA

[2] = biological target: T1, S7.1R (Dj-S7.1R); type: cell-based

Compound | EC50 [1] | IC50 [2]
NCCc1c[nH]c2ccc(O)cc12 [5-HT] | 82 ± 5 nM | –
CC(C)C[C@H]1C(=O)N2CCC[C@H]2[C@]2(O)O[C@](NC(=O)[C@@H]3C=C4c5cccc6[nH]c(Br)c(c56)C[C@H]4N(C)C3)(C(C)C)C(=O)N12 [bromocriptine] | – | 1800 ± 500 nM
